# Measurements as given in patent US20070244077A1, “COMPOSITION AND METHOD OF TREATING PERIPHERAL NEUROPATHY” (priority 2006, published 2007).
# How the values were obtained:
# Type in all cases: in vivo, rat
# [1] = tested on: streptozotocin-induced diabetic rats; assay: Tactile allodynia, 50% withdrawal force to von Frey filaments in experimentally diabetic rats; settings: for prevention of tactile allodynia (result in words): 3 months of treatment, diabetic rats, FIG. 2, aspirin 0.3 mg/kg, VIT E 4 g/kg diet, AMG 3 g/kg diet, PJ-34 20 mg/kg daily in drinking water; for animals in which development of tactile allodynia was prevented: SFZ 150 mg/kg BW daily in drinking water, vs non-treated diabetic group
# Text: Streptozotocin-induced diabetic rats (6-8 animals per group) were either left untreated or subjected to treatment with SFZ for up to 9 months. The presence of tactile allodynia was investigated at different time-points. […] Diabetic rats were either left untreated or subjected to treatment with either SFZ, the PARP inhibitor PJ-34, vitamin E (Vit E), or aminoguanidine (AMG) for 3 months. […] Experimentally diabetic rats display tactile allodynia (i.e., the perception of non-painful stimuli as painful), as evidenced by a significant decrease in the 50% withdrawal force (force at which there is a 50% probability of withdrawal) to von Frey filaments (FIGS. 1 and 2). The tactile allodynia was evident as early as 1 month after induction of diabetes and persisted throughout the experimental period (FIG. 1). Importantly, when compared to the non-treated diabetic group, administration of SFZ (150 mg/kg BW, daily, added to drinking water) prevented the development of tactile allodynia in either 50% or 80-100% of the animals after one or three months of treatment, respectively. We compared the effect of SFZ treatment on tactile allodynia in experimentally diabetic rats with those elicited by other salicylates (i.e. aspirin, 0.3 mg/kg), by the anti-oxidants Vitamin E (VIT E; 4 g/kg diet) and by aminoguanidine (AMG; 3 g/kg diet) and by the poly-ADP ribose-polymerase (PARP) inhibitor PJ-34 (20 mg/kg, daily, added to drinking water).
# [2] = tested on: streptozotocin-induced diabetic rats; assay: Mechanical hyperalgesia, Randall and Selitto test in streptozotocin-induced diabetic rats; settings: results not shown
# Text: Experimentally diabetic rats display nociceptive alterations in addition to tactile allodynia.
# p65 NFkB = assay: Western blot of p65 NFkB expression in sciatic nerves of diabetic rats; settings: 3-month SFZ-treated diabetic rats, immunoblot, FIG. 3
# Text: FIG. 3 is a Western blot analysis of p65 NFkB and CREB expression in sciatic nerves from individual normal (N), 3-month diabetic (D) and 3-month SFZ-treated diabetic (S) rats. Nerve proteins were subjected to SDS-PAGE and immunoblotting with antisera against p65 NFkB (left panel) or total (CREB) and phosphorylated CREB (p-CREB) (right panel). The ratio between the levels of pCREB and total CREB, in arbitrary units, is shown at the bottom of the respective lanes (numbers underneath the lanes). Blots were also probed using anti-ERK2 to control for protein loading. We carried out preliminary studies to determine the ability of commercial antibodies to detect the p65 subunit of NFkB, phospho-CREB (p-CREB) and CREB in sciatic nerve extracts (FIG. 3), as well as the possible changes in the expression of these transcription factors during experimental diabetes. The signal detected in the immunoblots is likely to reflect the presence of these transcription factors in Schwann cells, fibroblasts and/or endothelial cells. […] We are currently performing electrophoretic mobility shift assays (EMSA) to determine whether the increased immunoreactivity of p65 NFkB in diabetic nerves is paralleled by an increase in NFkB activity. At the same time, we observed a modest decrease in the levels of p-CREB relative to total CREB in diabetic nerves (FIG. 3, right panel). […]
# NO = NO levels (nitrate+nitrite, fluorometric assay kit) in sciatic nerve extracts of diabetic rats; settings: sciatic nerves; SFZ 200 mg/Kg BW daily for 9 months; mean ± SD of 3 animals
# Method: (§1) NO levels were assayed in extracts from sciatic nerves (epineurium-free) by measuring the stable metabolites of NO (nitrate+nitrite) using a fluorometric assay kit. At the same time, the levels of PGE2 were evaluated by ELISA using a commercial kit (Cayman Chemical). In parallel samples, we also performed an immunoblot analysis to investigate possible changes in the expression of COX-2, one of the enzymes that convert arachidonic acid into PGE2.
# PGE2 = PGE2 levels by ELISA in sciatic nerve extracts of diabetic rats; settings: sciatic nerves; SFZ 200 mg/Kg BW daily for 9 months; mean ± SD of 3 animals
# Method: as §1
# COX-2 = assay: Immunoblot of COX-2 expression in sciatic nerve extracts of diabetic rats; settings: normal vs diabetic vs SFZ-treated diabetic animals, FIG. 5
# Method: as §1
# adenosine derivatives = assay: Reverse-phase HPLC of adenosine derivatives (inosine, AMP) in sciatic nerve extracts of diabetic rats; settings: total sciatic nerves; SFZ 200 mg/Kg BW daily for 9 months; mean ± SEM of 4 animals
# Text: Administration of either adenosine or of adenosine kinase or adenosine deaminase inhibitors appears to increase nociception thresholds. Two studies have reported that acute administration of either adenosine or adenosine kinase inhibitors can prevent some nerve abnormalities in experimental diabetes. […] However, no studies have investigated the eventual changes in levels of adenosine (or its metabolites) in diabetic nerves. […] Given these precedents, and to determine whether the beneficial effects of SFZ might be mediated through changes in adenosine levels, we measured the levels of this nucleoside in sciatic nerve extracts. Separation of adenosine derivatives was performed by reverse-phase HPLC in […]. This method allows proper separation of ATP, ADP, AMP, adenosine and inosine standards (FIG. 6). Under our experimental conditions we didn't detect an adenosine peak in the sciatic nerve extracts, but we typically observed small peaks corresponding to ATP and ADP and two relatively large peaks corresponding to AMP and inosine (a metabolite obtained by deamination of adenosine) (FIG. 7). The lack of an adenosine peak following fractionation of the sciatic nerve extracts is consistent with metabolism to AMP and/or with the presence of significant adenosine deaminase activity in these samples (and complete degradation to inosine and other breakdown products). […] The analysis of the elution profiles corresponding to sciatic nerve extracts prepared from normal, diabetic and SFZ-treated diabetic rats is summarized in Table 3. We observed that the SFZ-treated diabetic rats display an increase of inosine and a decrease in AMP levels. The design of these experiments could be improved to include the derivatization of samples (and increase the resolution of the ATP and ADP peaks) and/or dual analysis of samples to improve separation of overlapping components.
compound,measurement,setting,value
"N=C(N)NN [AMG, aminoguanidine]",prevention of tactile allodynia (result in words),[1],partial prevention of tactile allodynia
"O=C(O)c1cc(/N=N/c2ccc(S(=O)(=O)Nc3ccccn3)cc2)ccc1O [SFZ, 5([p(2-pyridylsulfamoyl)phenyl]azo)salicylic acid]",prevention of tactile allodynia (result in words),[1],completely prevents the development of tactile allodynia
same,animals in which development of tactile allodynia was prevented,[1]; after one month of treatment,50%
same,animals in which development of tactile allodynia was prevented,[1]; after three months of treatment,80-100%
same,prevention of tactile allodynia over time (result in words),"[1]; treatment for up to 9 months, different time-points, FIG. 1",prevents the development of tactile allodynia
same,effect on mechanical withdrawal thresholds (mechanical hyperalgesia),[2],modest amelioration of the mechanical thresholds that was not statistically significant
same,diabetes-induced increase in expression of p65 NFkB in sciatic nerves,p65 NFkB,can be prevented by SFZ treatment
same,NO,NO,3.08 ± 0.25 nmoles/mg protein
same,PGE2,PGE2,366 ± 220 pmoles/mg protein
same,expression of COX-2 in sciatic nerve,COX-2,did not observe any significant changes
same,AMP,adenosine derivatives,2.04 ± 0.37 nmoles/mg protein
same,Inosine,adenosine derivatives,5.25 ± 0.64 nmoles/mg protein
same,Inosine/AMP,adenosine derivatives,2.71 ± 1.34
Vitamin E [VIT E],prevention of tactile allodynia (result in words),[1],partial prevention of tactile allodynia
CC(=O)Oc1ccccc1C(=O)O [aspirin],prevention of tactile allodynia (result in words),[1],partial prevention of tactile allodynia
CN(C)CC(=O)Nc1ccc2[nH]c(=O)c3ccccc3c2c1 [PJ-34],prevention of tactile allodynia (result in words),[1],partial prevention of tactile allodynia
